PMC8560763, “Roles of metal ions in the selective inhibition of oncogenic variants of isocitrate dehydrogenase 1” (Communications Biology, 2021)
Values joined by “and” are separate entries in the source; they are usually repeats but may differ in a detail not shown here. Equal entries are not always repeated.

What was measured:
wt IDH1 [1] = target: T1, wt IDH1 (Homo sapiens, UniProt O75874); assay: Absorbance assay (NADPH, 340 nm): kinetics of oxidative reaction (isocitrate to 2OG) by wt IDH1; type: biochemical
T1 construct: made in house; host or cells: Escherichia coli BL21(DE3) pLyS
T1 sequence (O75874 2-414): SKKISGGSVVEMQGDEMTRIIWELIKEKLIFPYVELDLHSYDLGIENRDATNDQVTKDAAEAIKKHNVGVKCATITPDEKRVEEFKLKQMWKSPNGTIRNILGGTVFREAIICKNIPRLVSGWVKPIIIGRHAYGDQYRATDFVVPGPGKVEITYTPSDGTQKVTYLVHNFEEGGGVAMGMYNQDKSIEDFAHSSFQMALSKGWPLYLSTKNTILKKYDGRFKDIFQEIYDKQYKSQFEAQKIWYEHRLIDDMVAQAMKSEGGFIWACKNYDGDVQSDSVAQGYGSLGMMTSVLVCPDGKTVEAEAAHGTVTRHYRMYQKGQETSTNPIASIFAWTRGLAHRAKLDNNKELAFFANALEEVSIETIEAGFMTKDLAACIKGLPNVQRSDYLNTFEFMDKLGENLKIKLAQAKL
Protocol: (§1) All experiments were performed in (at least) triplicate.
(§2) KM values were determined by varying concentrations of the substrate/cofactor under investigation while maintaining the concentrations of other components using standard conditions. […] Graphs were fitted using GraphPad Prism to obtain kinetic parameters.

wt IDH1 [2] = target: T1, wt IDH1; assay: Absorbance assay: kinetics of reductive reaction (2OG to isocitrate) by wt IDH1; type: biochemical; conditions: wt IDH1, reductive reaction with Mg^2+
Protocol: as §1, §2

wt IDH1 [3] = target: T1, wt IDH1; assay: Absorbance assay: effect of metal ions on catalysis and inhibition of wt IDH1; type: biochemical; conditions: wt IDH1, metal ions 10 mM
Protocol: Inhibition assays of wt or R132H IDH1 with metal ions were conducted with a 12 min pre-incubation of metal ions (25 µL, final concentration 10 mM) and enzyme (25 µL) before the addition of substrate (25 µL) and cofactor (25 µL). […] The difference in absorbance, ΔA340, in the linear range of the reaction profile was converted to % residual activity with the DMSO control being the 100% residual activity reference.

wt IDH1 [4] = target: T1, wt IDH1; assay: Differential scanning fluorimetry (DSF) thermal shift, wt IDH1; type: binding; conditions: for Δ in Tm: Fig. 2e; for thermal stabilisation: wt IDH1, Mg^2+ alone, 0.032–20 mM
Protocol: Thermal shift experiments were carried out using Sypro Orange dye and a CFX96 Touch^TM Real-Time PCR Detection System (Bio-Rad)[69]. […] The standard assay buffer contains 50 mM Tris-HCl at pH 7.5. Various concentrations of substrates were mixed with IDH1 for thermal stabilisation studies. […] Bio-Rad CFX Manager was used to determine the melting temperature, Tm.

wt IDH1 [5] = target: T1, wt IDH1; assay: Isothermal titration calorimetry (ITC), binding to wt IDH1; conditions: alone, EDTA-treated wt IDH1, 50 mM Tris-HCl, pH 7.5
Protocol: ITC experiments were conducted using a Malvern MicroCal PEAQ-ITC Automated machine. In general, the protein was prepared in 50 mM Tris-HCl ± 5 mM metal chloride salts at pH 7.5; substrates were dissolved in the same buffer. Four hundred microlitres of cell solution and 200 µL of titrant were transferred to an ITC plate. […] The injection setup consisted of 19 injections that have one initial injection of 0.4 µL and 18 injections of 2.0 µL each with 150 s between the injections. The thermodynamic parameters were obtained using the MicroCal PEAQ-ITC analysis software.

[6] = ITC, metal ion binding to DL-isocitrate; conditions: read-out: KD for metal ion binding to DL-isocitrate; metal ion (10 mM), DL-isocitrate (500 µM), 50 mM Tris-HCl, pH 7.5
Protocol: ITC experiments were conducted using a Malvern MicroCal PEAQ-ITC Automated machine. In general, the protein was prepared in 50 mM Tris-HCl ± 5 mM metal chloride salts at pH 7.5; substrates were dissolved in the same buffer. Four hundred microlitres of cell solution and 200 µL of titrant were transferred to an ITC plate. Titrations were conducted at 25 °C with an initial delay of 60 s and a stir speed of 750 r.p.m. The injection setup consisted of 19 injections that have one initial injection of 0.4 µL and 18 injections of 2.0 µL each with 150 s between the injections. The thermodynamic parameters were obtained using the MicroCal PEAQ-ITC analysis software.

[7] = wt IDH1, oxidative reaction with Mg^2+ (10 mM MgCl2)

[Cl-].[Cl-].[Mg+2] [MgCl2]
Velocity (wt IDH1 [1]; Fig. S2c, [MgCl2] 1.95312 μM): 0.01456 µM/s and 0.01492 µM/s and 0.01895 µM/s | Velocity (wt IDH1 [1]; Fig. S2c, [MgCl2] 3.90625 μM): 0.02158 µM/s and 0.02123 µM/s and 0.02246 µM/s | Velocity (wt IDH1 [1]; Fig. S2c, [MgCl2] 7.8125 μM): 0.03106 µM/s and 0.03492 µM/s and 0.04106 µM/s | Velocity (wt IDH1 [1]; Fig. S2c, [MgCl2] 15.625 μM): 0.05387 µM/s and 0.06159 µM/s and 0.06633 µM/s | Velocity (wt IDH1 [1]; Fig. S2c, [MgCl2] 31.25 μM): 0.08809 µM/s and 0.1025 µM/s and 0.1206 µM/s | Velocity (wt IDH1 [1]; Fig. S2c, [MgCl2] 62.5 μM): 0.1304 µM/s and 0.136 µM/s and 0.1651 µM/s | Velocity (wt IDH1 [1]; Fig. S2c, [MgCl2] 250 μM): 0.1516 µM/s and 0.1788 µM/s and 0.1943 µM/s | Velocity (wt IDH1 [1]; Fig. S2c, [MgCl2] 500 μM): 0.1764 µM/s and 0.1771 µM/s and 0.2318 µM/s | Velocity (wt IDH1 [1]; Fig. S2c, [MgCl2] 1000 μM): 0.1957 µM/s and 0.2076 µM/s and 0.2279 µM/s | Velocity (wt IDH1 [1]; Fig. S2c, [MgCl2] 2000 μM): 0.2057 µM/s and 0.2199 µM/s and 0.2304 µM/s | Velocity (wt IDH1 [1]; Fig. S2d, [MgCl2] 15.625 μM): 0.01053 µM/s and 0.01316 µM/s | Velocity (wt IDH1 [1]; Fig. S2d, [MgCl2] 31.25 μM): 0.02369 µM/s and 0.03159 µM/s and 0.03685 µM/s | Velocity (wt IDH1 [1]; Fig. S2d, [MgCl2] 62.5 μM): 0.03422 µM/s and 0.03685 µM/s and 0.04738 µM/s | Velocity (wt IDH1 [1]; Fig. S2d, [MgCl2] 250 μM): 0.0737 µM/s and 0.08423 µM/s and 0.07633 µM/s | Velocity (wt IDH1 [1]; Fig. S2d, [MgCl2] 500 μM): 0.09476 µM/s and 0.07896 µM/s | Velocity (wt IDH1 [1]; Fig. S2d, [MgCl2] 1000 μM): 0.1027 µM/s and 0.08949 µM/s and 0.09476 µM/s | Velocity (wt IDH1 [1]; Fig. S2d, [MgCl2] 2000 μM): 0.08949 µM/s and 0.1079 µM/s and 0.09212 µM/s | kcat (wt IDH1 [1]; wt IDH1, oxidative reaction with Mg^2+): 50 ± 4 s⁻¹ | Km (wt IDH1 [1]; [7]): 36 ± 4 µM | Vmax (wt IDH1 [1]; [7]): 214 ± 5 nM/s | Km (wt IDH1 [1]; wt IDH1 isocitrate oxidation, in the presence of 150 mM NaCl): 94 µM | kcat (wt IDH1 [2]): 2.1 ± 0.1 s⁻¹ | effect of metal ion on catalysis (wt IDH1 [3]): promoted | Δ in Tm (wt IDH1 [4]; wt IDH1, 0.8 mM MgCl2, replicates): -0.3 °C and -0.1 °C (2×) | Δ in Tm (wt IDH1 [4]; wt IDH1, 4 mM MgCl2, replicates): -0.1 °C | Δ in Tm (wt IDH1 [4]; wt IDH1, 20 mM MgCl2, replicates): -0.5 °C and -0.1 °C (2×) | thermal stabilisation (wt IDH1 [4]): no thermal shift | thermal stabilisation (wt IDH1 [4]; listed as Mg^2+): does not stabilise | thermal stabilisation (shift in Tm) (wt IDH1 [4]; wt IDH1, divalent metal ions (5 mM), 50 mM Tris-HCl, pH 7.5): less stabilising effect | Kd (wt IDH1 [5]): > 8000 µM | Kd [6]: 1500 µM
